Values of other authors, collected in US6821541B2, “Anaerobic tea steeper and method of use” (priority 2002, dated 2004).
Read-outs that look alike come from different tables or passages of the source.

Tests used:
[1] = test system: canine lymphoma (lymphosarcoma); conditions: dogs with lymphoma
[2] = for stability in tea drinks: room temperature

COc1cccc2c1C(=O)c1c(O)c3c(c(O)c1C2=O)C[C@@](O)(C(=O)CO)C[C@@H]3O[C@H]1C[C@H](N)[C@H](O)[C@H](C)O1 [Doxorubicin]
duration of remission ([1]; drug alone, guideline value): 18-29 weeks

Oc1cc(O)c2c(c1)O[C@H](c1ccc(O)c(O)c1)[C@H](O)C2 [EC, (−) epicatechin]
stability in tea drinks [2]: generally stable

O=C(O[C@@H]1Cc2c(O)cc(O)cc2O[C@@H]1c1ccc(O)c(O)c1)c1cc(O)c(O)c(O)c1 [ECG, (−) epicatechin gallate]
stability in tea drinks [2]: generally stable

C[C@]12C=CC(=O)C=C1CC[C@@H]1[C@@H]2C(=O)C[C@@]2(C)[C@H]1CC[C@]2(O)C(=O)CO [Prednisone]
duration of remission ([1]; guideline values): about 30 days

(−) epigallocatechin gallate [EGCG]
stability in aqueous solution ([2]; 4° C., 24 hours, pH 3-9): stable | level remaining after degradation ([2]; 24 hours at 50° C. and pH 5): below 80 % of the initial concentration | stability in tea drinks [2]: generally stable
